One test has as its target T1, Adenosine receptor A1 (Bos taurus, UniProt P28190).
T1 sequence (P28190 whole entry): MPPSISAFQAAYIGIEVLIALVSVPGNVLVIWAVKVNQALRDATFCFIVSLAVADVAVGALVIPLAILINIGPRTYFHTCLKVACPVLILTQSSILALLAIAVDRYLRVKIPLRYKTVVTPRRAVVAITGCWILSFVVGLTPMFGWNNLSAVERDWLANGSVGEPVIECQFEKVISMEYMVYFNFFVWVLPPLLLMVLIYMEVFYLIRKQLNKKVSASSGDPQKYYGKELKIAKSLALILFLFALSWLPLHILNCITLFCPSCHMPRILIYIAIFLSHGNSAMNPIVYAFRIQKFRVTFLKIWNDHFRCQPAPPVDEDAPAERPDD
The test can be described thus: Displacement of [3H]CHA from Adenosine A1 receptor in bovine cortical membrane expressed as Ki. Type of test: cell membranes. (In general: Loss of bound radioactivity is the signal in a displacement assay; it reports binding, not function.)

Test [1] relates to Adenosine receptor A2a (Bos taurus). Briefly: Percent inhibition of [3H]CGS-21680 binding to A2A adenosine receptor of bovine striatal membrane at 10 uM.
The target in test [2] is T2, Adenosine receptor A1 (Bos taurus) (UniProt P28190).
T2 sequence (whole entry): T1 sequence (P28190 whole entry)
The test can be described thus: Percent inhibition of [3H]CHA binding at Adenosine A1 receptor in bovine cortical membrane at 10 uM. Type of test: cell membranes.

The target in test [3] is Adenosine receptor A2a (Bos taurus). The test can be described thus: Displacement of [3H]CGS-21680 binding at A2A adenosine receptor in bovine striatal membrane.

Molecules are shown by their SMILES.

These results are taken from ChEMBL document CHEMBL1133964, “Synthesis and biological data of 4-amino-1-(2-chloro-2-phenylethyl)-1H-pyrazolo[3,4-b]pyridine-5-carboxylic acid ethyl esters, a new series of A1-adenosine receptor (A1AR) ligands” (Bioorg Med Chem Lett, 2001).

On Adenosine receptor A1, `CCOC(=O)c1cnc2c(cnn2CC(Cl)c2ccccc2)c1NC(C)(C)C` (stereo not drawn) registered a Ki of 4800 nM.
With `CCOC(=O)c1cnc2c(cnn2CC(Cl)c2ccccc2)c1Nc1ccccc1` (stereo not drawn), the inhibition constant Ki at Adenosine receptor A1 was determined as 348 nM. Also, in test [1], the inhibition was 11%.
As to `CCOC(=O)c1cnc2c(cnn2CC(Cl)c2ccccc2)c1N1CCNCC1` (stereo not drawn), the inhibition was determined as 0% in test [2] and 6% in test [1].
Take `CCOC(=O)c1cnc2c(cnn2CC(Cl)c2ccccc2)c1NC1CC1` (stereo not drawn): affinity at Adenosine receptor A1 was put at a Ki of 112 nM. In test [1], this compound had an inhibition of 10%.
The corresponding values for `CCOC(=O)c1cnc2c(cnn2CC(Cl)c2ccccc2)c1NCc1ccccc1` (stereo not drawn) are 139 nM and 0%.
As for `CCOC(=O)c1cnc2c(cnn2CC(Cl)c2ccccc2)c1N1CCCCC1` (stereo not drawn), the inhibition in test [2] came out at 41%; in test [1], 23%.
On Adenosine receptor A1, `CCOC(=O)c1cnc2c(cnn2CC(Cl)c2ccccc2)c1N1CCOCC1` (stereo not drawn) showed a Ki of 470 nM. This compound also showed an inhibition in test [1] of 0%.
With `CCOC(=O)c1cnc2c(cnn2CC(Cl)c2ccccc2)c1N1CCCC1` (stereo not drawn), affinity on Adenosine receptor A1 was put at a Ki of 98.2 nM.
For the compound `CCOC(=O)c1cnc2c(cnn2CC(Cl)c2ccccc2)c1NCCc1ccccc1` (stereo not drawn), on Adenosine receptor A1, affinity was put at a Ki of 50 nM.
Compound `CCOCCNc1c(C(=O)OCC)cnc2c1cnn2CC(Cl)c1ccccc1` (stereo not drawn) returned an inhibition constant (Ki) at Adenosine receptor A1 of 151 nM.
Take `CCCCNc1c(C(=O)OCC)cnc2c1cnn2CC(Cl)c1ccccc1` (stereo not drawn): at Adenosine receptor A1, the Ki was found to be 4100 nM. This compound also returned an inhibition in test [1] of 3%.
Consider `CCOC(=O)c1cnc2c(cnn2CC(Cl)c2ccccc2)c1N1CCCCCC1` (stereo not drawn), for which the inhibition in test [2] is 35%; in test [1] it was 22%.
On to `CCOC(=O)c1cnc2c(cnn2CC(Cl)c2ccccc2)c1N1CCN(C)CC1` (stereo not drawn), for which the inhibition in test [2] came out at 22%. Besides, in test [3], the Ki was 2140 nM.
Compound `CCCNc1c(C(=O)OCC)cnc2c1cnn2CC(Cl)c1ccccc1` (stereo not drawn) displayed a Ki on Adenosine receptor A1 of 100 nM.

For orientation: Ki means a measure of affinity in units of concentration, obtained from inhibition or displacement. For orientation: inhibition means how much of the control response was suppressed.
